Legend:
Type in all cases: in vivo
[1] = tested on: boll weevil (Anthonomus grandis); experiment: Boll weevil control, 96-well microtiter plate with insect diet and eggs; details: 120 h, sprayed onto insect diet, assessed after 5 days, read-out: mortality in comparison with untreated controls (egg and larval mortality)
Experimental: For evaluating control of boll weevil (Anthonomus grandis) the test unit consisted of 96-well-microtiter plates containing an insect diet and 5-10 A. grandis eggs.
The compounds were formulated using a solution containing 75% v/v water and 25% v/v DMSO. Different concentrations of formulated compounds were sprayed onto the insect diet at 5 μl, using a custom built micro atomizer, at two replications.
After application, microtiter plates were incubated at about 25±1° C. and about 75±5% relative humidity for 5 days. Egg and larval mortality was then visually assessed.

[2] = tested on: Diamond Back Moth (Plutella xylostella); experiment: Diamond back moth, cabbage leaf dip test; details: foliar, 3rd instar larvae, 72 hours after treatment, read-out: mortality in comparison with untreated controls
Experimental: The active compound is dissolved at the desired concentration in a mixture of 1:1 (vol:vol) distilled water:acetone. Surfactant (Alkamuls® EL 620) is added at a rate of 0.1% (vol/vol). The test solution is prepared at the day of use.
Leaves of cabbage were dipped in test solution and air-dried. Treated leaves were placed in petri dish enlined with moist filter paper and inoculated with ten 3rd instar larvae. Mortality was recorded 72 hours after treatment. Feeding damages were also recorded using a scale of 0-100%.

[3] = tested on: Southern Armyworm (Spodoptera eridania), 2nd Instar Larvae; experiment: Southern armyworm 2nd instar larvae on sprayed lima bean plants; details: 96 h, 4 days after treatment, read-out: mortality in comparison with untreated controls
Experimental: The active compounds were formulated in cyclohexanone as a 10,000 ppm solution supplied in tubes. The tubes were inserted into an automated electrostatic sprayer equipped with an atomizing nozzle and they served as stock solutions for which lower dilutions were made in 50% acetone:50% water (v/v). A nonionic surfactant (Kinetic®) was included in the solution at a volume of 0.01% (v/v).
Lima bean plants (variety Sieva) were grown 2 plants to a pot and selected for treatment at the 1st true leaf stage. Test solutions were sprayed onto the foliage by an automated electrostatic plant sprayer equipped with an atomizing spray nozzle. The plants were dried in the sprayer fume hood and then removed from the sprayer. Each pot was placed into perforated plastic bags with a zip closure. About 10 to 11 armyworm larvae were placed into the bag and the bags zipped closed. Test plants were maintained in a growth room at about 25° C. and about 20-40% relative humidity for 4 days, avoiding direct exposure to fluorescent light (24 hour photoperiod) to prevent trapping of heat inside the bags. Mortality and reduced feeding were assessed 4 days after treatment, compared to untreated control plants.

[4] = tested on: tobacco budworm (Heliothis virescens); experiment: Tobacco budworm control, 96-well microtiter plate with insect diet and eggs; details: 120 h, sprayed onto insect diet, assessed after 5 days, read-out: mortality in comparison with untreated controls (egg and larval mortality)
Experimental: For evaluating control of tobacco budworm (Heliothis virescens) the test unit consisted of 96-well-microtiter plates containing an insect diet and 15-25 H. virescens eggs.
The compounds were formulated using a solution containing 75% v/v water and 25% v/v DMSO. Different concentrations of formulated compounds were sprayed onto the insect diet at 10 μl, using a custom built micro atomizer, at two replications.
After application, microtiter plates were incubated at about 28±1° C. and about 80±5% relative humidity for 5 days. Egg and larval mortality was then visually assessed.

[5] = tested on: yellow fever mosquito (Aedes aegypti); experiment: whole plant or invertebrate; details: 48 h, freshly hatched larvae in tap water, assessed after 2 days, read-out: mortality in comparison with untreated controls (larval mortality)
Experimental: For evaluating control of yellow fever mosquito (Aedes aegypti) the test unit consisted of 96-well-microtiter plates containing 200 μl of tap water per well and 5-15 freshly hatched A. aegypti larvae. The active compounds were formulated using a solution containing 75% (v/v) water and 25% (v/v) DMSO. Different concentrations of formulated compounds or mixtures were sprayed onto the insect diet at 2.5 μl, using a custom built micro atomizer, at two replications.
After application, microtiter plates were incubated at 28+1° C., 80+5% RH for 2 days. Larval mortality was then visually assessed.

[6] = tested on: Orchid Thrips (Dichromothrips corbetti); experiment: Orchid thrips, floral-immersion technique; details: dipped orchid petals, adult thrips, 72 hours after treatment, read-out: mortality in comparison with untreated controls
Experimental: Dichromothrips corbetti adults used for bioassay were obtained from a colony maintained continuously under laboratory conditions. For testing purposes, the test compound is diluted in a 1:1 mixture of acetone:water (vol:vol), plus Kinetic® HV at a rate of 0.01% v/v.
Thrips potency of each compound was evaluated by using a floral-immersion technique. All petals of individual, intact orchid flowers were dipped into treatment solution and allowed to dry in Petri dishes. Treated petals were placed into individual re-sealable plastic along with about 20 adult thrips. All test arenas were held under continuous light and a temperature of about 28° C. for duration of the assay. After 3 days, the numbers of live thrips were counted on each petal. The percent mortality was recorded 72 hours after treatment.

[7] = tested on: Western Flower Thrips (Frankliniella occidentalis); experiment: Western flower thrips on leaf discs of sprayed cotton plants; details: foliar, 48 h, 2 DAT (days after treatment), read-out: mortality in comparison with untreated controls
Experimental: The active compounds were formulated by a Tecan liquid handler in 100% cyclohexanone as a 10,000 ppm solution supplied in tubes. The 10,000 ppm solution was serially diluted in 100% cyclohexanone to make interim solutions. These served as stock solutions for which final dilutions were made by the Tecan in 50% acetone:50% water (v/v) into 10 or 20 ml glass vials. A nonionic surfactant (Kinetic®) was included in the solution at a volume of 0.01% (v/v). The vials were then inserted into an automated electrostatic sprayer equipped with an atomizing nozzle for application to plants/insects.
Small (˜2″ in height) cotton plants are sprayed with test compounds at concentrations ranging from 300 to 0.01 ppm in acetone/water through the automated VPS. After drying, cotton leaves are removed and circular leaf discs (−1 cm diameter) are punched from the treated surface and transferred to clean 20 mL scintillation vials. Ten Western flower thrips (FRANOC) are aspirated into each scintillation vial. The vials with the leaf discs and thrips are kept in an upright incubator at 25° C. and 50% relative humidity with a 14:10 light:dark photoperiod. Each treatment is replicated twice.
Thrips mortality is assessed at 2 DAT (days after treatment), counting all thrips both dead and alive. [The average absolute mortality is calculated for each treatment.]

[8] = tested on: Silverleaf Whitefly (Bemisia argentifolii) (Adults); experiment: Silverleaf whitefly adults on sprayed cotton plants; details: 72 h, 3 days after treatment, read-out: mortality in comparison with untreated controls
Description: The active compounds were formulated in cyclohexanone as a 10,000 ppm solution supplied in tubes. The tubes were inserted into an automated electrostatic sprayer equipped with an atomizing nozzle and they served as stock solutions for which lower dilutions were made in 50% acetone:50% water (v/v). A non-ionic surfactant (Kinetic®) was included in the solution at a volume of 0.01% (v/v).
Cotton plants at the cotyledon stage (one plant per pot) were sprayed by an automated electrostatic plant sprayer equipped with an atomizing spray nozzle. The plants were dried in the sprayer fume hood and then removed from the sprayer. Each pot was placed into a plastic cup and about 10 to 12 whitefly adults (approximately 3-5 days old) were introduced. The insects were collected using an aspirator and a nontoxic Tygon® tubing connected to a barrier pipette tip. The tip, containing the collected insects, was then gently inserted into the soil containing the treated plant, allowing insects to crawl out of the tip to reach the foliage for feeding. Cups were covered with a reusable screened lid. Test plants were maintained in a growth room at about 25° C. and about 20-40% relative humidity for 3 days, avoiding direct exposure to fluorescent light (24-hour photoperiod) to prevent trapping of heat inside the cup. Mortality was assessed 3 days after treatment, compared to untreated control plants.

CC(C)c1ccccc1NC(=S)N/N=C/c1ccc2c(C(=O)Nc3ccc(OC(F)(F)F)cc3)nccc2c1 [Compound C-1, 6-[(E)-[(2-isopropylphenyl)carbamothioylhydrazono]methyl]-N-[4-(trifluoromethoxy)phenyl]isoquinoline-1-carboxamide]
> 75%: mortality at 800 ppm [1] | mortality at 300 ppm [2] | mortality at 300 ppm [3] | mortality at 800 ppm [4] | mortality at 800 ppm [5] | mortality at 300 ppm [6] | mortality at 300 ppm [7]

CC(C)c1ccccc1N1C(=O)CS/C1=N\N=C\c1ccc2c(C(=O)Nc3ccc(OC(F)(F)F)cc3)nccc2c1 [Compound C-2, 6-[(E)-[(Z)-[3-(2-isopropylphenyl)-4-oxo-thiazolidin-2-ylidene]hydrazono]methyl]-N-[4-(trifluoromethoxy)phenyl]isoquinoline-1-carboxamide]
> 75%: mortality at 800 ppm [1] | mortality at 300 ppm [2] | mortality at 300 ppm [8] | mortality at 300 ppm [3] | mortality at 800 ppm [4] | mortality at 800 ppm [5] | mortality at 300 ppm [6] | mortality at 300 ppm [7]

From US12459934B2, “Pesticidal compounds” (BASF SE, priority 2018, dated 2025)
